# According to article PMC12580772, “A First-in-Human Study of ATM Inhibitor Lartesertib as Monotherapy in Patients with Advanced Solid Tumors” (Clinical Cancer Research, 2025):
# Columns and labels:
# advanced solid tumors = assay: Efficacy: tumor response and PFS by RECIST version 1.1; type: in vivo, human
# Description: The primary endpoints were the occurrence of DLTs, adverse events (AE), and treatment-related and treatment-emergent AEs (TEAE), along with the occurrence of clinically significant changes in vital signs, laboratory parameters, and 12-lead electrocardiogram findings. The secondary endpoints included PK parameters of lartesertib in plasma after single and multiple doses; establishment of the recommended dose for expansion based on safety, PK, and PD data; absolute and relative changes overtime from baseline in ATM pathway readouts assessed by flow cytometry and immunohistochemistry; and objective response, duration of response, and progression-free survival (PFS) according to the RECIST version 1.1, as assessed by the investigator. Exploratory endpoints included the correlation of baseline and on-treatment biomarkers with response to lartesertib treatment as well as relative changes in total blood cell count, immune cells, and circulatory factors during exposure to lartesertib.
# For the efficacy analysis, the proportion of patients with objective response, defined as radiologic complete response (CR) + partial response, was tabulated, and the 95% confidence interval (CI) was estimated using the Clopper–Pearson method. PFS was estimated using the Kaplan–Meier method. The median PFS time and rate estimates at 3, 6, and 12 months, as well as every 6 months thereafter, were also summarized.
# [1] = tested on: patient-derived xenograft models of triple-negative breast cancer; design: method as in PMID 37079339; conditions: lartesertib in combination with gartisertib; cited from earlier work
# [2] = tested on: patients with advanced solid tumors; design: method as in PMID 38407317; conditions: combination of lartesertib and tuvusertib; cited from earlier work
# [3] = tested on: MiaPaCa2 pancreatic cancer model; design: method as in PMID 37079339; conditions: combination with the ATR inhibitor gartisertib; cited from earlier work
# γ-H2AX = assay: PD analysis: γ-H2AX in CD45+ lymphocytes after ex vivo bleomycin stimulation, flow cytometry; design: species or system human; conditions: 2, 4, 6 hours on Day 1, sustained Day 2 at 2 to 4 hours, all four DLs
# Experimental: The PD analyses in blood were conducted using samples collected during Cycle 1 at the following time points: Day 1, pre-dose, and post-dose at 2, 4, and 6 hours; Day 2 at pre-dose and post-dose at 2 to 4 hours; and Day 22 at pre-dose and post-dose at 2 and 4 hours. These samples were analyzed to assess levels of the PD biomarker, γ-H2AX, a phosphorylated histone variant known to represent an early and sensitive marker of DSB response ([18]). Each sample was stimulated ex vivo with bleomycin, a DNA DSB inducer that activates ATM function, or with phosphate-buffered saline as a negative control. γ-H2AX was subsequently measured in the CD45^+ lymphocyte fraction by flow cytometry.
smiles,measurement,setting,value
COc1cc2ncc3c(c2cc1-c1cn(C)nc1C)n(-c1c(F)cncc1OC)c(=O)n3C [lartesertib],Best overall response: Non-complete response/non-progressive disease,advanced solid tumors; 100 mg n = 2,1 (50.0) n (%)
same,Best overall response: Not evaluable,advanced solid tumors; 100 mg n = 2,1 (50.0) n (%)
same,Best overall response: Progressive disease,advanced solid tumors; 100 mg n = 2,0 (0.0) n (%)
same,Best overall response: Stable disease,advanced solid tumors; 100 mg n = 2,0 (0.0) n (%)
same,Progressive disease/Deaths (PFS events),advanced solid tumors; 100 mg n = 2,0 (0.0) n (%)
same,"PFS, median (min, max)","advanced solid tumors; 100 mg n = 2, NC, noncalculable","NC (1.2,4.0)"
same,Best overall response: Non-complete response/non-progressive disease,advanced solid tumors; 200 mg n = 7,0 (0.0) n (%)
same,Best overall response: Not evaluable,advanced solid tumors; 200 mg n = 7,2 (28.6) n (%)
same,Best overall response: Progressive disease,advanced solid tumors; 200 mg n = 7,5 (71.4) n (%)
same,Best overall response: Stable disease,advanced solid tumors; 200 mg n = 7,0 (0.0) n (%)
same,"PFS, median (min, max)",advanced solid tumors; 200 mg n = 7,"1.1 (0.0, 1.6) months"
same,Progressive disease/Deaths (PFS events),advanced solid tumors; 200 mg n = 7,6 (85.7) n (%)
same,Best overall response: Non-complete response/non-progressive disease,advanced solid tumors; 300 mg n = 9,0 (0.0) n (%)
same,Best overall response: Not evaluable,advanced solid tumors; 300 mg n = 9,2 (22.2) n (%)
same,Best overall response: Progressive disease,advanced solid tumors; 300 mg n = 9,6 (66.7) n (%)
same,Best overall response: Stable disease,advanced solid tumors; 300 mg n = 9,1 (11.1) n (%)
same,"PFS, median (min, max)",advanced solid tumors; 300 mg n = 9,"1.3 (0.0, 4.1) months"
same,Progressive disease/Deaths (PFS events),advanced solid tumors; 300 mg n = 9,7 (77.8) n (%)
same,Best overall response: Non-complete response/non-progressive disease,advanced solid tumors; 400 mg n = 4,0 (0.0) n (%)
same,Best overall response: Not evaluable,advanced solid tumors; 400 mg n = 4,2 (50.0) n (%)
same,Best overall response: Progressive disease,advanced solid tumors; 400 mg n = 4,1 (25.0) n (%)
same,Progressive disease/Deaths (PFS events),advanced solid tumors; 400 mg n = 4,1 (25.0) n (%)
same,"PFS, median (min, max)","advanced solid tumors; 400 mg n = 4, NC, noncalculable","NC (0.0, 2.8)"
same,Best overall response: Non-complete response/non-progressive disease,advanced solid tumors; Total N = 22,1 (4.5) n (%)
same,Best overall response: Not evaluable,advanced solid tumors; Total N = 22,7 (31.8) n (%)
same,Best overall response: Progressive disease,advanced solid tumors; Total N = 22,12 (54.5) n (%)
same,Best overall response: Stable disease,advanced solid tumors; Total N = 22,2 (9.1) n (%)
same,"PFS, median (min, max)",advanced solid tumors; Total N = 22,"1.3 (0.0, 4.1) months"
same,Progressive disease/Deaths (PFS events),advanced solid tumors; Total N = 22,14 (63.6) n (%)
same,Median PFS,"advanced solid tumors; all patients, Kaplan–Meier","1.3 (95% CI, 0.99–1.58) months"
same,Best overall response stable disease,advanced solid tumors; of 22 patients,9.1%
same,Progressive disease,advanced solid tumors; of 22 patients,54.5%
same,Non-CR/non–progressive disease,"advanced solid tumors; of 22 patients, prostate gland cancer",4.5%
same,Duration of stable disease,advanced solid tumors; patient with nasopharyngeal cancer,120 days
same,Tumor control rate,[1],42%
same,Patients experiencing SD for >16 weeks,[2],six of 42
same,Tumor growth,[3],complete tumor growth inhibition
same,γ-H2AX target inhibition over time,γ-H2AX,trend of increasing lartesertib target inhibition
